Experimental data taken from ChEMBL document CHEMBL2440076, “New triarylpyrazoles as broad-spectrum anticancer agents: design, synthesis, and biological evaluation” (Eur J Med Chem, 2013).

Tests used:
Format in all cases: functional
Malme-3M = experiment: Growth inhibition of human MALME-3M cells assessed as cell growth at 3X10'-5 M after 48 hrs by sulforhodamine B assay; conditions: read-out: Activity
BT-549 = experiment: Growth inhibition of human BT549 cells assessed as cell growth at 3X10'-6 M after 48 hrs by sulforhodamine B assay; conditions: BT-549, 48 h, read-out: Activity
CCRF-CEM [1] = experiment: Growth inhibition of human CCRF-CEM cells assessed as cell growth at 3X10'-6 M after 48 hrs by sulforhodamine B assay; conditions: read-out: Activity
RXF 393 = experiment: Growth inhibition of human RXF393 cells assessed as cell growth at 3X10'-7 M after 48 hrs by sulforhodamine B assay; conditions: RXF 393, 48 h, read-out: Activity
T47D = experiment: Growth inhibition of human T47D cells assessed as cell growth at 3X10'-8 M after 48 hrs by sulforhodamine B assay; conditions: read-out: Activity
SW-620 = experiment: Growth inhibition of human SW620 cells assessed as cell growth at 3X10'-8 M after 48 hrs by sulforhodamine B assay; conditions: SW-620, 48 h, read-out: Activity
CAKI-1 [2] = experiment: Growth inhibition of human CAKI-1 cells assessed as cell growth at 3X10'-5 M after 48 hrs by sulforhodamine B assay; conditions: CAKI-1, 48 h, read-out: Activity
CCRF-CEM [3] = experiment: Growth inhibition of human CCRF-CEM cells assessed as cell growth at 3X10'-8 M after 48 hrs by sulforhodamine B assay; conditions: read-out: Activity
SK-MEL-2 = experiment: Growth inhibition of human SK-MEL-2 cells assessed as cell growth at 3X10'-9 M after 48 hrs by sulforhodamine B assay; conditions: SK-MEL-2, 48 h, read-out: Activity
SK-OV-3 [4] = experiment: Growth inhibition of human SKOV3 cells assessed as cell growth at 3X10'-5 M after 48 hrs by sulforhodamine B assay; conditions: SK-OV-3, 48 h, read-out: Activity
HL-60(TB) = experiment: Growth inhibition of human HL-60(TB) cells assessed as cell growth at 3X10'-9 M after 48 hrs by sulforhodamine B assay; conditions: HL-60, 48 h, read-out: Activity
MCF7 [5] = experiment: Growth inhibition of human MCF7 cells assessed as cell growth at 3X10'-9 M after 48 hrs by sulforhodamine B assay; conditions: MCF7, 48 h, read-out: Activity
KM12 = experiment: Growth inhibition of human KM12 cells assessed as cell growth at 3X10'-7 M after 48 hrs by sulforhodamine B assay; conditions: KM12, 48 h, read-out: Activity
MCF7 [6] = experiment: Growth inhibition of human MCF7 cells assessed as cell growth at 3X10'-6 M after 48 hrs by sulforhodamine B assay; conditions: MCF7, 48 h, read-out: Activity
CCRF-CEM [7] = experiment: Growth inhibition of human CCRF-CEM cells assessed as cell growth at 3X10'-7 M after 48 hrs by sulforhodamine B assay; conditions: read-out: Activity
OVCAR-5 = experiment: Growth inhibition of human OVCAR5 cells assessed as cell growth at 3X10'-8 M after 48 hrs by sulforhodamine B assay; conditions: OVCAR-5, 48 h, read-out: Activity
NCI-H522 = experiment: Growth inhibition of human NCI-H522 cells assessed as cell growth at 3X10'-8 M after 48 hrs by sulforhodamine B assay; conditions: NCI-H522, 48 h, read-out: Activity
RPMI-8226 = experiment: Growth inhibition of human RPMI8226 cells assessed as cell growth at 3X10'-8 M after 48 hrs by sulforhodamine B assay; conditions: RPMI-8226, 48 h, read-out: Activity
NCI-H23 = experiment: Growth inhibition of human NCI-H23 cells assessed as cell growth at 3X10'-6 M after 48 hrs by sulforhodamine B assay; conditions: NCI-H23, 48 h, read-out: Activity
LOX IMVI [8] = experiment: Growth inhibition of human LOXIMVI cells assessed as cell growth at 3X10'-7 M after 48 hrs by sulforhodamine B assay; conditions: read-out: Activity
SR = experiment: Growth inhibition of human SR cells assessed as cell growth at 3X10'-7 M after 48 hrs by sulforhodamine B assay; conditions: read-out: Activity
MDA-MB-435 = experiment: Growth inhibition of human MDA-MB-435 cells assessed as cell growth at 3X10'-5 M after 48 hrs by sulforhodamine B assay; conditions: MDA-MB-435, 48 h, read-out: Activity
SK-OV-3 [9] = experiment: Growth inhibition of human SKOV3 cells assessed as cell growth at 3X10'-7 M after 48 hrs by sulforhodamine B assay; conditions: SK-OV-3, 48 h, read-out: Activity
COLO 205 = experiment: Growth inhibition of human COLO205 cells assessed as cell growth at 3X10'-6 M after 48 hrs by sulforhodamine B assay; conditions: COLO 205, 48 h, read-out: Activity
K562 = experiment: Growth inhibition of human K562 cells assessed as cell growth at 3X10'-6 M after 48 hrs by sulforhodamine B assay; conditions: K562, 48 h, read-out: Activity
OVCAR-3 = experiment: Growth inhibition of human OVCAR3 cells assessed as cell growth at 3X10'-6 M after 48 hrs by sulforhodamine B assay; conditions: OVCAR-3, 48 h, read-out: Activity
LOX IMVI [10] = experiment: Growth inhibition of human LOXIMVI cells assessed as cell growth at 3X10'-5 M after 48 hrs by sulforhodamine B assay; conditions: read-out: Activity
CAKI-1 [11] = experiment: Growth inhibition of human CAKI-1 cells assessed as cell growth at 3X10'-7 M after 48 hrs by sulforhodamine B assay; conditions: CAKI-1, 48 h, read-out: Activity
HCT-15 = experiment: Growth inhibition of human HCT15 cells assessed as cell growth at 3X10'-9 M after 48 hrs by sulforhodamine B assay; conditions: HCT-15, 48 h, read-out: Activity
HOP-92 = experiment: Growth inhibition of human HOP92 cells assessed as cell growth at 3X10'-6 M after 48 hrs by sulforhodamine B assay; conditions: HOP-92, 48 h, read-out: Activity
LOX IMVI [12] = experiment: Growth inhibition of human LOXIMVI cells assessed as cell growth at 3X10'-6 M after 48 hrs by sulforhodamine B assay; conditions: read-out: Activity
SF-539 [13] = experiment: Growth inhibition of human SF539 cells assessed as cell growth at 3X10'-9 M after 48 hrs by sulforhodamine B assay; conditions: SF-539, 48 h, read-out: Activity
NCI-H322M = experiment: Growth inhibition of human NCI-H322M cells assessed as cell growth at 3X10'-9 M after 48 hrs by sulforhodamine B assay; conditions: read-out: Activity
MDA-MB-468 = experiment: Growth inhibition of human MDA-MB-468 cells assessed as cell growth at 3X10'-5 M after 48 hrs by sulforhodamine B assay; conditions: MDA-MB-468, 48 h, read-out: Activity
SF-539 [14] = experiment: Growth inhibition of human SF539 cells assessed as cell growth at 3X10'-6 M after 48 hrs by sulforhodamine B assay; conditions: SF-539, 48 h, read-out: Activity
SF-539 [15] = experiment: Growth inhibition of human SF539 cells assessed as cell growth at 3X10'-5 M after 48 hrs by sulforhodamine B assay; conditions: SF-539, 48 h, read-out: Activity

COc1cc(-c2nn(-c3cccc(NC(=O)Nc4ccc(Cl)c(C(F)(F)F)c4)c3)cc2-c2ccncc2)ccc1Cl
growth at 30 µM (Malme-3M): -47% | growth at 3 µM (BT-549): 40% | growth at 3 µM (CCRF-CEM [1]): 3% | growth at 0.3 µM (RXF 393): 88% | growth at 0.03 µM (T47D): 101% | growth at 0.03 µM (SW-620): 100% | growth at 30 µM (CAKI-1 [2]): -20% | growth at 0.03 µM (CCRF-CEM [3]): 95% | growth at 0.003 µM (SK-MEL-2): 111% | growth at 30 µM (SK-OV-3 [4]): -14% | growth at 0.003 µM (HL-60(TB)): 101% | growth at 0.003 µM (MCF7 [5]): 94% | growth at 0.3 µM (KM12): 95% | growth at 3 µM (MCF7 [6]): 5% | growth at 0.3 µM (CCRF-CEM [7]): 93% | growth at 0.03 µM (OVCAR-5): 89% | growth at 0.03 µM (NCI-H522): 104% | growth at 0.03 µM (RPMI-8226): 97% | growth at 3 µM (NCI-H23): 11% | growth at 0.3 µM (LOX IMVI [8]): 97% | growth at 0.3 µM (SR): 98% | growth at 30 µM (MDA-MB-435): -50% | growth at 0.3 µM (SK-OV-3 [9]): 103% | growth at 3 µM (COLO 205): -49% | growth at 3 µM (K562): 12% | growth at 3 µM (OVCAR-3): -14% | growth at 30 µM (LOX IMVI [10]): -72% | growth at 0.3 µM (CAKI-1 [11]): 93% | growth at 0.003 µM (HCT-15): 94% | growth at 3 µM (HOP-92): -36% | growth at 3 µM (LOX IMVI [12]): 13% | growth at 0.003 µM (SF-539 [13]): 97% | growth at 0.003 µM (NCI-H322M): 93% | growth at 30 µM (MDA-MB-468): -38% | growth at 3 µM (SF-539 [14]): 33% | growth at 30 µM (SF-539 [15]): -80%
